The values below come from patent US11141444B2, “Lactobacillus crispatus KBL693 strain and use thereof” (KO Biolabs, Inc., priority 2018, dated 2021).

The test system of this experiment is RBL-2H3 cells. In words: Inhibition of degranulation (β-hexosaminidase co-secreted with histamine) in RBL-2H3 cells. Format: cell-based. The settings on record: RBL-2H3, IgE + DNP-HAS induced degranulation; 120 μL culture supernatant or ketotifen 20 μg/mL; negative control (Siraganian buffer) = 1.0. The source says:
It has been reported that, in an allergic reaction, histamine is expressed in tissues, causing an inflammatory reaction, and suppressing histamine secretion leads to alleviation of allergic symptoms by blocking the reaction by histamine. The present invention attempted to select probiotic strains that can show effects on the alleviation and treatment of allergic reactions through inhibition of histamine secretion. To this end, a total of eight Lactobacillus strains derived from human vagina were evaluated for the ability to suppress histamine secretion. […]
To identify the activity of β-hexosaminidase, 25 μL of the supernatant collected in Example 1-3 was transferred to each well of a 96-well plate, and then 25 μL of each substrate (p-nitrophenyl N-acetyl-D-[…]) was added thereto, and followed by a reaction at 37° C. in the 5% CO2 incubator for 90 minutes. Then, 200 μL of stop solution (Na2CO3/NaHCO3) was added to stop the reaction and then absorbance was measured at 405 nm. The absorbance when treated with each type of Lactobacillus crispatus was compared to the negative control group and converted to percentage to show the level of inhibition of the degranulation.

For `CN1CCC(=C2c3ccccc3CC(=O)c3sccc32)CC1` [Ketotifen, ketotifen], the “β-hexosaminidase (fold change)” value is 0.2569 fold change.
